Results from PubChem BioAssay AID256 (DTP/NCI, 2004).
Inconclusive results and toxic doses are left out. Rule for the calls: active = survival T/C of 150% or more; inactive = T/C below 125% in these data. Non-standard residues stand in square brackets, D forms with d. Residues, ends and D or L forms follow the SMILES beside them. ξ: configuration not given here. ξF = NC(Cc1ccccc1)C(=O)O

System: CD2F1 mice, L1210 leukemia ip, survival T/C
Assay: NCI In Vivo Anticancer Drug Screen. Data for tumor model L1210 Leukemia (intraperitoneal) in CD2F1 (CDF1) mice
Settings: higher = longer survival
Method in brief: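 In this screen, transplantable tumors were grown in mice given either the compound or its vehicle. Results were expressed as the treated measurement relative to the control measurement.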

[1] = endpoint: mean survival time, dose: 100.0 mg/kg/injection, schedule: Q01DX001 (ip), vehicle: saline with Tween-80
[2] = endpoint: mean survival time, dose: 100.0 mg/kg/injection, schedule: Q01DX009 (ip), vehicle: saline with Tween-80
[3] = endpoint: mean survival time, dose: 200.0 mg/kg/injection, schedule: Q01DX001 (ip), vehicle: saline with Tween-80
[4] = endpoint: mean survival time, dose: 400.0 mg/kg/injection, schedule: Q01DX001 (ip), vehicle: saline with Tween-80
[5] = endpoint: mean survival time, dose: 50.0 mg/kg/injection, schedule: Q04DX002 (ip), vehicle: saline with Tween-80
[6] = endpoint: mean survival time, dose: 100.0 mg/kg/injection, schedule: Q04DX002 (ip), vehicle: saline with Tween-80
[7] = endpoint: mean survival time, dose: 200.0 mg/kg/injection, schedule: Q04DX002 (ip), vehicle: saline with Tween-80
[8] = endpoint: mean survival time, dose: 20.0 mg/kg/injection, schedule: Q04DX003 (ip), vehicle: saline with Tween-80
[9] = endpoint: mean survival time, dose: 100.0 mg/kg/injection, schedule: Q01DX001 (ip), vehicle: saline
[10] = endpoint: mean survival time, dose: 200.0 mg/kg/injection, schedule: Q01DX001 (ip), vehicle: saline

Measured: T/C

O=S(=O)(c1ccc(N2CCOCC2)cc1)c1ccnc2cc(Cl)ccc12
inactive: [1] 93 % of control | [2] 89 % of control | [3] 101 % of control | [4] 87 % of control

O=C1C=CC(=Nc2ccc(O)cc2)O1
inactive: endpoint: mean survival time, dose: 5.0 mg/kg/injection, schedule: Q01DX009 (ip), vehicle: saline with Tween-80 100 % of control | endpoint: mean survival time, dose: 10.0 mg/kg/injection, schedule: Q01DX009 (ip), vehicle: saline with Tween-80 94 % of control | endpoint: mean survival time, dose: 20.0 mg/kg/injection, schedule: Q01DX009 (ip), vehicle: saline with Tween-80 104 % of control

C[C@]12C=CC(=O)C=C1CC[C@@H]1[C@@H]2CC[C@]2(C)OC(=O)CC[C@@H]12
inactive: endpoint: median survival time, dose: 125.0 mg/kg/injection, schedule: Q01DX009 (sc), vehicle: steriod suspending solution 97 % of control | endpoint: median survival time, dose: 125.0 mg/kg/injection, schedule: Q## X009 (sc), vehicle: steriod suspending solution 97 % of control | endpoint: median survival time, dose: 250.0 mg/kg/injection, schedule: Q01DX009 (sc), vehicle: steriod suspending solution 104 % of control | endpoint: median survival time, dose: 250.0 mg/kg/injection, schedule: Q## X009 (sc), vehicle: steriod suspending solution 104 % of control | endpoint: median survival time, dose: 500.0 mg/kg/injection, schedule: Q01DX009 (sc), vehicle: steriod suspending solution 102 % of control | endpoint: median survival time, dose: 500.0 mg/kg/injection, schedule: Q## X009 (sc), vehicle: steriod suspending solution 102 % of control | endpoint: median survival time, dose: 1000.0 mg/kg/injection, schedule: Q01DX009 (sc), vehicle: steriod suspending solution 102 % of control | endpoint: median survival time, dose: 1000.0 mg/kg/injection, schedule: Q## X009 (sc), vehicle: steriod suspending solution 102 % of control

CCCCCCCCCCCC(=O)NC(=S)Nc1cccc(C(F)(F)F)c1
inactive: endpoint: mean survival time, dose: 100.0 mg/kg/injection, schedule: Q01DX009 (ip), vehicle: other 95 % of control | endpoint: mean survival time, dose: 200.0 mg/kg/injection, schedule: Q01DX009 (ip), vehicle: other 103 % of control | endpoint: mean survival time, dose: 400.0 mg/kg/injection, schedule: Q01DX009 (ip), vehicle: other 103 % of control

C(=Nc1ccc2ccccc2c1)c1ccccc1
inactive: [5] 91 % of control | [6] 95 % of control | [7] 95 % of control | endpoint: mean survival time, dose: 400.0 mg/kg/injection, schedule: Q04DX002 (ip), vehicle: saline with Tween-80 98 % of control

CCN(CC)N=Nc1ccccc1
inactive: endpoint: mean survival time, dose: 75.0 mg/kg/injection, schedule: Q01DX001 (ip), vehicle: saline 114 % of control

Cc1cc(N=C(N)N)ccc1C(=O)Oc1ccc([N+](=O)[O-])cc1
inactive: endpoint: mean survival time, dose: 12.5 mg/kg/injection, schedule: Q01DX009 (ip), vehicle: other 102 % of control | endpoint: mean survival time, dose: 25.0 mg/kg/injection, schedule: Q01DX009 (ip), vehicle: other 98 % of control | endpoint: mean survival time, dose: 50.0 mg/kg/injection, schedule: Q01DX009 (ip), vehicle: other 90 % of control

NCC(=O)NC(Cc1ccccc1)C(=O)O (configuration not stated) (H-Gly-[ξF]-OH)
inactive: endpoint: mean survival time, dose: 50.0 mg/kg/injection, schedule: Q01DX009 (ip), vehicle: saline with Tween-80 102 % of control | [2] 100 % of control | endpoint: mean survival time, dose: 200.0 mg/kg/injection, schedule: Q01DX009 (ip), vehicle: saline with Tween-80 100 % of control

C1N2CN3CN1CN(C2)C3.[Cl][Pt]([Cl])[Cl]
inactive: endpoint: mean survival time, dose: 3.13 mg/kg/injection, schedule: Q04DX003 (ip), vehicle: distilled water + Tween-80 103 % of control | endpoint: mean survival time, dose: 6.25 mg/kg/injection, schedule: Q04DX003 (ip), vehicle: distilled water + Tween-80 108 % of control | endpoint: mean survival time, dose: 12.5 mg/kg/injection, schedule: Q04DX003 (ip), vehicle: distilled water + Tween-80 109 % of control | endpoint: mean survival time, dose: 25.0 mg/kg/injection, schedule: Q04DX003 (ip), vehicle: distilled water + Tween-80 108 % of control | endpoint: mean survival time, dose: 50.0 mg/kg/injection, schedule: Q04DX003 (ip), vehicle: distilled water + Tween-80 115 % of control

NNC(=S)Nc1ccccc1
inactive: [8] 98 % of control

O=[N+]([O-])c1ccc(OC(=S)c2ccccc2)cc1
inactive: [6] 96 % of control | [7] 96 % of control

Cc1ccc(C2OC2C(=O)c2ccccc2)cc1 (configuration not stated)
inactive: [5] 95 % of control | [1] 94 % of control | [6] 91 % of control | [3] 92 % of control | [4] 94 % of control

O=[N+]([O-])O.O=[N+]([O-])O.[NH-]C1CCCCC1[NH-].[Pt+2] (configuration not stated)
inactive: endpoint: mean survival time, dose: 0.03 mg/kg/injection, schedule: Q01DX009 (ip), vehicle: other 120 % of control | endpoint: mean survival time, dose: 0.13 mg/kg/injection, schedule: Q04DX003 (ip), vehicle: other 120 % of control | endpoint: mean survival time, dose: 0.19 mg/kg/injection, schedule: Q04DX003 (ip), vehicle: saline 119 % of control | endpoint: mean survival time, dose: 0.25 mg/kg/injection, schedule: Q01DX009 (ip), vehicle: dextrose 98 % of control | endpoint: mean survival time, dose: 0.39 mg/kg/injection, schedule: Q01DX005 (ip), vehicle: saline 119 % of control | endpoint: mean survival time, dose: 0.39 mg/kg/injection, schedule: Q04DX003 (ip), vehicle: saline 120 % of control | endpoint: mean survival time, dose: 0.5 mg/kg/injection, schedule: Q01DX001 (ip), vehicle: other 113 % of control | endpoint: mean survival time, dose: 1.0 mg/kg/injection, schedule: Q01DX009 (ip), vehicle: dextrose 119 % of control | endpoint: mean survival time, dose: 1.0 mg/kg/injection, schedule: Q01DX009 (ip), vehicle: other 90 % of control | endpoint: mean survival time, dose: 3.12 mg/kg/injection, schedule: Q01DX005 (oral), vehicle: saline 97 % of control | endpoint: mean survival time, dose: 4.0 mg/kg/injection, schedule: Q04DX003 (ip), vehicle: other 95 % of control | endpoint: mean survival time, dose: 6.25 mg/kg/injection, schedule: Q01DX005 (oral), vehicle: saline 97 % of control | endpoint: mean survival time, dose: 12.5 mg/kg/injection, schedule: Q04DX003 (ip), vehicle: saline 100 % of control

CC(O)C1=CC(c2ccccc2)(c2ccccc2)c2ccccc21 (configuration not stated)
inactive: [1] 95 % of control | [3] 91 % of control | [4] 88 % of control

C[NH-].C[NH-].[Cl][Pt+2][Cl]
inactive: endpoint: mean survival time, dose: 2.5 mg/kg/injection, schedule: Q04DX003 (ip), vehicle: water 91 % of control | endpoint: mean survival time, dose: 5.0 mg/kg/injection, schedule: Q04DX003 (ip), vehicle: water 120 % of control | endpoint: mean survival time, dose: 10.0 mg/kg/injection, schedule: Q04DX003 (ip), vehicle: water 92 % of control

O.O.O=C(O)C(O)C(O)C(OC1OC(CO)C(O)C(O)C1O)C(O)CO.O=C(O)C(O)C(O)C(OC1OC(CO)C(O)C(O)C1O)C(O)CO.[NH-]C1CCCCC1[NH-].[Pt+2] (configuration not stated)
inactive: endpoint: median survival time, dose: 3.12 mg/kg/injection, schedule: Q04DX003 (ip), vehicle: saline 100 % of control | endpoint: median survival time, dose: 6.25 mg/kg/injection, schedule: Q04DX003 (ip), vehicle: saline 100 % of control | endpoint: median survival time, dose: 12.5 mg/kg/injection, schedule: Q04DX003 (ip), vehicle: saline 102 % of control | endpoint: median survival time, dose: 25.0 mg/kg/injection, schedule: Q04DX003 (ip), vehicle: saline 101 % of control | endpoint: median survival time, dose: 50.0 mg/kg/injection, schedule: Q04DX003 (ip), vehicle: saline 98 % of control | endpoint: median survival time, dose: 100.0 mg/kg/injection, schedule: Q04DX003 (ip), vehicle: saline 101 % of control | endpoint: median survival time, dose: 200.0 mg/kg/injection, schedule: Q04DX003 (ip), vehicle: saline 112 % of control

CC1=CCCC(C)C2CC(C(C)(C)O)CC12 (configuration not stated)
inactive: [9] 93 % of control | [10] 91 % of control | endpoint: mean survival time, dose: 400.0 mg/kg/injection, schedule: Q01DX001 (ip), vehicle: saline 95 % of control

CCC(C)[N+](=O)[O-] (configuration not stated)
inactive: endpoint: mean survival time, dose: 50.0 mg/kg/injection, schedule: Q01DX001 (ip), vehicle: saline 94 % of control | [9] 98 % of control | [10] 102 % of control

N#CC12CC3CC(CC(C3)C1)C2
inactive: endpoint: mean survival time, dose: 5.0 mg/kg/injection, schedule: Q04DX003 (ip), vehicle: saline with Tween-80 104 % of control | endpoint: mean survival time, dose: 10.0 mg/kg/injection, schedule: Q04DX003 (ip), vehicle: saline with Tween-80 104 % of control | [8] 100 % of control
